The source of these data is patent publication US5192764A, “Pyrazinone N-oxide nucleosides and analogs thereof” (priority 1991, dated 1993).

Molecules are shown by their SMILES. A value given as a limit tells only on which side of the number the result lay.

One data set concerns herpes simplex. To be noted: literature; comparable to 5-iodo-2'-deoxyuridine; cited from earlier work.
A further data set relates to vaccinia viruses. Particulars: literature; comparable to 5-iodo-2'-deoxyuridine; cited from earlier work.
For data set [1], the system named is HSV-1 (KOS strain). Description: Plaque reduction method, anti-HSV-1 (KOS strain). The class given is cell-based. To be noted: for activity at 1 µM: Human alphaherpesvirus 1, 1 uM; for activity at 1 µM / activity at 5 µM / activity at 25 µM / activity at 100 µM: read-out: Plaque Forming Units, % of Control; for activity at 5 µM: Human alphaherpesvirus 1, 5 uM; for activity at 25 µM: Human alphaherpesvirus 1, 25 uM; for activity at 100 µM: Human alphaherpesvirus 1, 100 uM; for antiherpes activity (in words): data of Table 1. Here is the method:
Antiviral (HSV) activities of 1-(2'-Deoxy-B-D-ribofuranosyl)-2-pyrazinone-4-N-oxide (A in table 1) and the corresponding 1-(2'-Deoxy-B-D-ribofuranosyl)-5-methyl-2-pyrazinone-N-oxide and 1-(2,-Deoxy-B-D-ribofuranosyl)-5-ethyl-2-pyrazinone-4-N-oxide (respectively, B and C of table 1) were determined according to the procedure described in Gao, et al., Antimic. Agents Chem., 34, 808 (1990), using the plaque reduction method. Table 1 indicates the relative antiviral activities of the three derivatives against HSV-1 (KOS strain).
(In a plaque reduction assay, fewer plaques than in the control indicate reduced infectivity or spread.)

The next data set relates to bacterial cells. Particulars: literature; cited from earlier work.
The test system of another data set is leukemic L1210 cells. To be noted: literature; cited from earlier work.
Data set [2] has as its system HSV-1 (KOS strain). The data set can be described thus: Virus Yield Method against HSV-1 (KOS strain). It is filed as cell-based. Particulars: for IC90: Human alphaherpesvirus 1, read-out: ID90 (the source's name).
Another data set has as its system HSV-2 (333). Description: Virus Yield method against HSV-2 (333). It is filed as cell-based. To be noted: Human alphaherpesvirus 2, read-out: ID90 (the source's name).
The subject of a further data set is HSV-1 KOS (PFAr). The data set can be described thus: Plaque Reduction Method against HSV-1 KOS phosphonoformate resistant strain. Particulars: Human alphaherpesvirus 1, read-out: ID50. The class given is cell-based. The procedure: (§1) Using the Plaque Reduction Method, activity against HSV-1 KOS Phosphono formate resistant (PFAr) and KOS 9-(2-Phosphonylmethoxyethyl)-adenine resistant (PMEAr) strains was assessed.

The next data set deals with HSV-1 KOS (PMEAr). Description: Plaque Reduction Method against HSV-1 KOS 9-(2-phosphonylmethoxyethyl)-adenine resistant strain. The class given is cell-based. Particulars: Human alphaherpesvirus 1, read-out: ID50. Here is the method:
as §1

A further data set concerns leukemia L1210 cells. The data set can be described thus: Cytotoxicity against leukemia L1210 cells. The class given is cell-based. Particulars: up to a concentration of 2×10^-3. Here is the method: (§2) Compounds B and C were tested for cytotoxicity against leukemia L1210 cells up to a concentration of 2×10^-3 according to the method described in Bobek and Bloch, J. Med. Chem., 20, 458, 1977. In addition, these compounds were tested for cytotoxicity against a human T-cell lymophoblast cell line (CEM) according to the method of Vazquez-Padua, et al., Cancer Comm., 2, 55-62 (1990) with the exception that the cell line was different, to assay the cells, the cells were counted with a cell counter and the cells were incubated for 4 days instead of for 3 days.

Data set [3] can be described thus: Cytotoxicity against human T-cell lymphoblast cell line (CEM). It is filed as cell-based. To be noted: human; CEM cells, 4 days incubation; read-out: cytotoxicity ID50. Here is the method:
as §2

Data set [4] deals with human T-cell lymophoblast cell line (CEM). The data set is described as above. The class given is cell-based. Particulars: CEM cells, 4 days incubation. The procedure: as §2
In a further data set the test system is EBV. The data set can be described thus: Anti-EBV activity, EBV DNA in high EBV producer cell line. It is filed as cell-based. Particulars: EBV DNA in Hl subclone of P3HR-1 cells, EBV DNA probe BAMH IM. Here is the method: In particular, when EBV DNA was assessed in a high EBV producer cell line (Hl, which is a subclone of P3HR-1 cells of Burkitt's lymphoma cell line), Compound C evidenced anti-EBV activity. The methodology employed in the EBV assay is similar to the method of Foster, et al., Jour. Biol. Chem., 266, 238, (1991), except that the EBV DNA was assessed with an EBV DNA probe BAMH IM.

For a further data set, the system named is Varicella Zoster (VZV). The data set can be described thus: Anti-VZV activity (Virus Yield) in HLF human cell line. The class given is cell-based. An excerpt:
As tested, using the above-described methodology, luM of Compound C inhibited 90% of the Virus Yield.

A further data set deals with thymidine phosphorylase. Description: Breakdown by human liver thymidine phosphorylase. To be noted: enzyme from human liver. It is filed as biochemical. The text has this:
Compound C was also examined against thymidine phosphorylase obtained from the human liver using standard methodology.

With `CCc1cn([C@H]2C[C@H](O)[C@@H](CO)O2)c(=O)[nH]c1=O` [5-ethyl-2'-deoxyuridine], in the data set with herpes simplex, the “activity against herpes simplex” value was “significant activity”. The “activity against vaccinia viruses” value in the data set with vaccinia viruses is given as “significant activity”.

On to `O=c1c[n+]([O-])ccn1[C@H]1C[C@H](O)[C@@H](CO)O1` [A, 1-(2'-Deoxy-B-D-ribofuranosyl)-2-pyrazinone-4-N-oxide], for which, in the data set on HSV-1 (KOS strain) [1], the activity at 1 µM came out at 100%, the activity at 5 µM was 100%, the activity at 25 µM was found to be 100% and the activity at 100 µM worked out at 100%. Further, the “antiherpes activity (in words)” value with HSV-1 (KOS strain) [1] is “inactive”. For the same molecule, the “antibacterial / antimicrobial activity” value in the data set on bacterial cells is “significantly more effective as an antimicrobial agent than the riboside”. Further, in the data set with leukemic L1210 cells, the “activity against leukemic L1210 cells” value was “essentially inactive”.

With `Cc1cn([C@H]2C[C@H](O)[C@@H](CO)O2)c(=O)c[n+]1[O-]` [Compound B, 1-(2'-Deoxy-B-D-ribofuranosyl)-5-methyl-2-pyrazinone-N-oxide], in the data set on HSV-1 (KOS strain) [1], the activity at 1 µM worked out at 100%, the activity at 5 µM was 39%, the activity at 25 µM is 0.91% and the activity at 100 µM turned out to be 0.09%. The “antiherpes activity (in words)” value with HSV-1 (KOS strain) [1] is reported as “significant antiherpes activity”. Also, the IC90 in the data set with HSV-1 (KOS strain) [2] came out at 1800 nM. The IC90 with HSV-2 (333) came to 3000 nM. Moreover, in the data set with HSV-1 KOS (PFAr), the IC50 is 1400 nM. Moreover, the IC50 with HSV-1 KOS (PMEAr) was 600 nM. Moreover, the cytotoxicity entry in the data set on leukemia L1210 cells is given as “significant cytoxtoxicity”. Moreover, the “antibacterial / antimicrobial activity” value in the data set with bacterial cells was “only marginally active”. In addition, the “activity against leukemic L1210 cells” value in the data set on leukemic L1210 cells was “significantly more active”.

Usually EC50 stands for the concentration giving half of the maximal effect. Read a low EC50 as greater potency. Turning to `CCc1cn([C@H]2C[C@H](O)[C@@H](CO)O2)c(=O)c[n+]1[O-]` [Compound C, 1-(2-Deoxy-B-D-ribofuranosyl)-5-ethyl-2-pyrazinone-4-N-oxide], in the data set with HSV-1 (KOS strain) [1], the activity at 1 µM was determined as 100%, the activity at 5 µM was determined as 55%, the activity at 25 µM was 4.5% and the activity at 100 µM was found to be 0.3%. The “antiherpes activity (in words)” value in the data set with HSV-1 (KOS strain) [1] is recorded as “significant antiherpes activity”. The molecule also gave a concentration giving a half-maximal response (EC50) in the data set on HSV-1 (KOS strain) [1] (Human alphaherpesvirus 1, plaque reduction) of 6000 nM. The IC90 in the data set on HSV-1 (KOS strain) [2] was 2800 nM. The IC90 in the data set on HSV-2 (333) amounted to 2000 nM. In addition, the IC50 with HSV-1 KOS (PFAr) came out at 3400 nM. Also, in the data set on HSV-1 KOS (PMEAr), the IC50 came to 1000 nM. Further, the cytotoxicity result with leukemia L1210 cells is “virtually no cytotoxicity”. The CC50 at 96 h in data set [3] is more than 400000 nM. Further, the “cytotoxicity relative to Compound B” value in [4] is “significantly less toxic than Compound B”. Besides, in the data set with EBV, the anti-EBV activity entry was “significant anti-EBV activity”. For the same molecule, the “activity against VZV (in words)” value in the data set on Varicella Zoster (VZV) is recorded as “significant activity”. The “inhibition of Virus Yield” value in the data set on Varicella Zoster (VZV) (luM) was determined as 90%. Moreover, the “substrate of thymidine phosphorylase” value in the data set with thymidine phosphorylase is “substrate of the enzyme”. In addition, the “rate of breakdown by the enzyme relative to thymidine” value in the data set on thymidine phosphorylase (compared with thymidine) is given as “much less than the rate or breakdown of thymidine”.

Take `Nc1nc2c(ncn2COCCO)c(=O)[nH]1` [acyclovir, reference compound]: in the data set on HSV-1 (KOS strain) [2], the “ID90 of ACV relative to Compound C (fold higher)” value is listed as “approximately 7 fold” and the IC90 stood at 14000 nM. Besides, the IC50 with HSV-1 KOS (PFAr) was found to be 6200 nM.

As to `O=c1c[n+]([O-])ccn1[C@@H]1O[C@H](CO)[C@@H](O)[C@H]1O` [riboside of 2-pyrazinone-4-N-oxide, reference compound], the “antibacterial / antimicrobial activity” value in the data set with bacterial cells is listed as “antibacterial activity”.
